Consider 3 compounds from patent US20060009480A1, “Sinomenine and sinomenine compounds, synthesis and use” (priority 2002, published 2006).

Test [1] relates to Wistar rat. Put plainly: Object recognition in the Wistar rat. It counts as in vivo. Conditions: dose of 3 mg/kg; second session 24 hours later. From the text: The object recognition test in the Wistar rat was initially developed by ENNACEUR and DELACOUR (Behav. Brain Res., 1988, 31, 47-59). The test is based on the spontaneous exploratory activity of the animal and has the characteristics of episodic memory in humans. This memory test is sensitive to ageing (SCALI et al., Eur. J. Pharmacol., 1997, 325, 173-180) and to cholinergic dysfunctions (BARTOLINI et al., Pharm. Biochem. Behav. 1996, 53(2), 277-283) and is based on the differences in the exploration of 2 objects of fairly similar shape—one familiar, the other new. Prior to the test, the animals are habituated to the environment (an enclosure without an object). In the course of a first session, the rats are placed (3 minutes) in the enclosure, in which there are 2 identical objects. The duration of exploration is measured for each object. In the course of the second session (3 minutes), 24 hours later, 1 of the 2 objects is replaced by a new object. The duration of exploration is measured for each object. The assessment criterion is the difference, Delta, expressed in seconds, between the exploration times for the new object and for the familiar object in the course of the second session.

In test [2] the test system is Wistar rat. Nature of the test: Social recognition in the Wistar rat. It counts as in vivo. Conditions: dose of 20 mg/kg (printed for Example 13); second encounter after 2 hours. The text has this:
Initially described in 1982 by THOR and HOLLOWAY (J. Comp. Physiol., 1982, 96, 1000-1006), the social recognition test has subsequently been proposed by various authors (DANTZER et al., Psychopharmacology, 1987, 91, 363-368; PERIO et al., Psychopharmacology, 1989, 97, 262-268) for studying the mnemocognitive effects of new compounds. The test is based on the natural expression of the olfactory memory of the rat and its natural tendency to forget, and allows evaluation of memorisation, by recognition of a young congeneric animal, by an adult rat. A young rat (21 days), taken at random, is placed for 5 minutes in the cage housing an adult rat. With the aid of a video device, the experimenter observes the social recognition behaviour of the adult rat and measures its overall duration. The young rat is then removed from the adult rat's cage and is placed in its own cage until the second introduction. The adult rat is given the compound under test and, after 2 hours, is again brought into the presence (5 minutes) of the young rat. The social recognition behaviour is then observed again and its duration measured. The assessment criterion is the difference (T2−T1), expressed in seconds, between the “recognition” times of the 2 encounters.

For test [3], the system named is NaNO2 induced anoxia. Put plainly: NaNO2 induced anoxia in mice. It counts as in vivo, mouse. The note with it: 70 mg/kg p.o.; NaNO2 225 mg/kg ip.

In the case of `COC1=CC2C3Cc4c(Cl)cc(OC)c(O)c4C2(CCN3C)CC1O` (stereo not drawn) [Example 4, (9α,13α)-1-Chloro-3,7-dimethoxy-17-methyl-7,8-didehydromorphinan-4,6-diol], the “difference, Delta, between the exploration times for the new object and the familiar object” value in test [1] was 10 s.
`COC1=CC2C3Cc4c(Br)cc(OC)c(O)c4C2(CCN3C)CC1O` (stereo not drawn) [Example 13, (9α,13α)-1-Bromo-3,7-dimethoxy-17-methyl-7,8-didehydromorphinan-4,6-diol]: the “difference (T2−T1) between the recognition times of the 2 encounters” value in test [2] was -36 s.
`CCC(=O)Oc1c(OC)cc(Cl)c2c1C13CCN(C)C(C2)C1C=C(OC)C(OC(=O)CC)C3` (stereo not drawn) [Example 5, (9α,13α)-1-Chloro-3,7-dimethoxy-17-methyl4-(propionyloxy)7,8-didehydromorphinan-6-yl propionate]: the “difference (T2−T1) between the recognition times of the 2 encounters” value in test [2] is -31 s. The compound also yielded a prolongation of survival in test [3] of 31%.
